A melting point compilation (Tetko et al.; mined from patent text by program, amines drawn as free bases though some values may be those of a salt)

melting point [°C]	Structure (SMILES)
126 to 127	CN1CCCC(n2nc(-c3c(-c4ccccc4)nn4ccccc34)ccc2=O)C1 (centres undefined)
151 to 152	O=C(CBr)N[C@H](Cc1ccc(C(F)(F)F)cc1)[C@@H](O)c1ccc(F)cc1 (racemic)
67 to 68	CCc1cc(Cl)cnc1N
> 250	O=C1c2ccccc2C(=O)N1Cc1cccc(CN2C(=O)c3ccccc3C2=O)n1
275 to 276	O=C1C(=O)c2ccccc2C2=C1SCC1(CCN(S(=O)(=O)c3ccc(Cl)c(Cl)c3)CC1)O2
172 to 177	CC(=O)OCC1CC2c3cccc4c3C(CC2N(C)C1)CN4C(C)=O (centres undefined)
197 to 199	FC(F)(F)c1ccc(-c2cc(Oc3cccc4cnccc34)nnc2Oc2cccc3cnccc23)cc1
141	NCC(O)COc1cc([N+](=O)[O-])ccc1N (centres undefined)
132 to 133	Cc1cc(C(=O)CS(C)(=O)=O)cc(C)c1N(C)C
200 to 205	CNc1ccc(-c2nc(N3CCOCC3)c3sc(C(C)(C)Nc4ncc(C(=O)NO)cn4)cc3n2)cn1
103 to 110	Cc1cc(N)c(I)c(C)n1
161 to 162	Cc1nc(Br)c(S(C)(=O)=O)c(Br)n1
140	Cc1cccc(-c2[nH]c(C(C)C)nc2-c2cccc(-c3ccc(C(=O)NC4CCOCC4)cc3)c2)n1
139 to 141	O=C(NO)C(CC(=O)N1CCOCC1)NS(=O)(=O)c1ccc(-c2ccc(Cl)cc2)cc1 (centres undefined)
87.5 to 89.5	Nc1ccc(C(=S)SCCO)cc1
139 to 140	Cc1oc(-c2ccco2)nc1COc1ccc(COc2nn(Cc3ccccc3)cc2C(N)=O)cc1
142 to 144	O=C(O)CCCNC(=O)c1ccccc1NC(=O)c1ccccc1[N+](=O)[O-]
111 to 113	O=C(Nc1ccc(Oc2ccnc(N3CCCC3)n2)c2ccccc12)c1ccccc1N1CCCC(F)C1 (centres undefined)
211 to 212	O=C(Cn1c(-c2cccc(Cl)c2)nc2cccnc21)Nc1ccccc1

melting point [°C]	Structure (SMILES)
66 to 68	COC(=O)C1CCN(CCc2ccc(OC)cc2)CC1
226 to 229	CN1CCN(C(=O)c2ccc(-n3nc(-c4ccccc4O)nc3-c3ccccc3O)cc2)CC1
107	O=C(CCCCCNC(=O)CCc1ccccc1)NO
149 to 150	Nc1ccccc1Oc1ccc2c(c1)OCC(=O)N2
76 to 91	Cc1nc2scc(-c3ccccc3)n2c(=O)c1CCN1CCC(c2noc3cc(F)ccc23)CC1
158 to 159	Cc1oc(-c2ccccc2)nc1COc1ccc(CON=C(CCC(=O)O)c2cccnc2)cc1
93	Cc1ccc2nc(-c3ccccc3)oc2c1
166 to 167	CC(=O)Nc1ccc(C=C(C(=O)C2CC2)C(=O)C2CC2)cc1
177 to 180	CCCN1CCCC1CNC(=O)c1cc(S(N)(=O)=O)cc2c1OC(C)C2 (centres undefined)
126	CCOC(=O)C(=O)NNC(=O)c1ccc(OCC)cc1
191 to 193	CCOC(=O)C1=C(C)NC(C)=C(/C=C/S(=O)(=O)NC(C)C)C1Cc1cccc([N+](=O)[O-])c1 (centres undefined)
65 to 69	N#Cc1ccnc(Cl)c1Cl
134	COC(=O)Cc1cc(NC(=O)OC(C)(C)C)c([N+](=O)[O-])cc1C#Cc1ccccc1
76	CC(=NOCCO)c1ccc(-c2ccccc2)nc1
146 to 148	O=C(Nc1ccc(Oc2ccccc2)cc1)N1CCN(c2ncnc3cc([N+](=O)[O-])ccc23)CC1
79 to 80	Cc1ccccc1COCCCC(=O)O
176	Clc1ccc(/C=C/c2ccc(Cl)cc2)cc1
126 to 128	c1cc(C2CC(c3ccncn3)CC(c3ccncn3)C2)ncn1 (centres undefined)
136 to 138	Cc1c(C(=O)OCc2ccccc2)sc(NC(=O)C(F)(F)F)c1C(=O)OC(C)(C)C

Structure (SMILES)	melting point [°C]
O=C(NC1CC1)OC1c2ccccc2C(=O)N1c1ccc2ccc(Cl)nc2n1 (centres undefined)	220
